Assay results: patent US20090318468A1, “PYRAZOLE COMPOUNDS 436” (AstraZeneca AB, priority 2008, published 2009)
“And” between values parts separate entries of the source, which are not always exact repeats. Identical values can stand only once.

Experiments:
FGFR1 = FGFR1 (Homo sapiens, UniProt P11362); assay: FGFR1 Kinase Assay - Caliper Echo Dosing; format: biochemical; conditions: 408 uM ATP, separate test occasions listed, read-out: IC50 (inhibition of FGFR1 kinase activity)
Description: FGFR1 Kinase Assay—Caliper Echo Dosing
To determine inhibition of FGFR1 activity, kinase assays were conducted using Caliper technology.
Kinase activity assays were performed in Greiner 384-well low volume plates, with a total reaction volume of 12 ul per well. Final concentration of FGFR1 active kinase in each reaction well was 7.2 nM. The substrate for each assay was a custom peptide with fluorescent tag (13 amino acids in length, […] with the fluorescene tag on the first K).
Compounds were dispensed directly in to assay plates using a Labcyte Echo 550 acoustic droplet ejection unit. […]
Assay plates were incubated at room temperature for 1.5 h, before the reaction was stopped with the addition of buffer [comprising: 100 mM HEPES—pH 7.5, 0.033% Brij-35 (Sigma Catalogue No. B4184), 0.22% Caliper Coating Reagent #3 (Caliper Life Sciences Catalogue No. 760050), 88 mM EDTA, 5% DMSO]. Stopped assay plates were then read using the Caliper LabChip® LC3000 (which uses microfludics to measure a shift in mobility between fluorescent labelled peptide and the FGFR1 kinase—phosphorylated form of this peptide).
In the assay, compounds were tested at a range of concentrations. […] Percentage inhibition at 1 uM, as expressed herein, is a calculated value based on the curve fit that was generated experimentally. […] This value is calculated using a standard curve fitting software package Origin™. […]

FGFR1 IIIc = molecular target: T1, FGFR1 IIIc (Homo sapiens, UniProt P11362); assay: Cell FGFR1 (ECHO): inhibition of transiently expressed FGFR1 IIIc phosphorylation in Cos-1 cells; format: cell-based; conditions: Cos-1 cells transiently expressing FGFR1 IIIc, 1 hour incubation; read-out: IC50 (inhibition of phosphorylated FGFR1)
T1 construct: expressed in transfected cells; host or cells: Cos-1
Text: Cell FGFR1 (ECHO)—Cell Based Inhibition of Transiently Expressed FGFR1 IIIc Phosphorylation via use of ECHO Technology (Measured using Phospho-Specific Primary and Fluorescent Secondary Antibodies).
This assay is designed to detect inhibitors of transiently expressed FGFR1 phosphorylation by antibody staining of fixed cells detected using ArrayScan technology.
Cos-1 cells were routinely passaged in DMEM (Gibco BRL, 41966) plus 3% foetal calf serum (FCS), 1% L-glutamine (Gibco BRL, 25030) to a confluence of 80%. To undertake the assay, Cos-1 cells were harvested at 90-95% confluence for cell transfection. For each 96-well plate, 24 μl Lipofectamine 2000 was added to 809 ul OptiMEM and incubated at room temperature for 5 minutes. For each 96 well plate, 20 ug 3′ FLAG tagged FGFR1/pcDNA3.1 (In-house clone15, MSD 4793) was diluted with OptiMEM to a total volume of 833 μl. Equal volumes of DNA and Lipofectamine 2000 were combined (DNA: Lipid=1:1.2 ratio) and incubated at room temperature for 20 minutes.
The harvested Cos-1 cells are counted using a coulter counter and diluted further with 1% FCS/DMEM to 2.5×10^5 cells/ml. For each 96-well, 8.33 ml cells were required. […]
Media was removed from the wells using vacuum aspiration; cells were fixed by adding 50 μl of 100% methanol to each well and incubated at room temperature for 20 minutes. […] The plates were read on an Arrayscan (Cellomics). […]

Chain of FGFR1 (P11362 22-822): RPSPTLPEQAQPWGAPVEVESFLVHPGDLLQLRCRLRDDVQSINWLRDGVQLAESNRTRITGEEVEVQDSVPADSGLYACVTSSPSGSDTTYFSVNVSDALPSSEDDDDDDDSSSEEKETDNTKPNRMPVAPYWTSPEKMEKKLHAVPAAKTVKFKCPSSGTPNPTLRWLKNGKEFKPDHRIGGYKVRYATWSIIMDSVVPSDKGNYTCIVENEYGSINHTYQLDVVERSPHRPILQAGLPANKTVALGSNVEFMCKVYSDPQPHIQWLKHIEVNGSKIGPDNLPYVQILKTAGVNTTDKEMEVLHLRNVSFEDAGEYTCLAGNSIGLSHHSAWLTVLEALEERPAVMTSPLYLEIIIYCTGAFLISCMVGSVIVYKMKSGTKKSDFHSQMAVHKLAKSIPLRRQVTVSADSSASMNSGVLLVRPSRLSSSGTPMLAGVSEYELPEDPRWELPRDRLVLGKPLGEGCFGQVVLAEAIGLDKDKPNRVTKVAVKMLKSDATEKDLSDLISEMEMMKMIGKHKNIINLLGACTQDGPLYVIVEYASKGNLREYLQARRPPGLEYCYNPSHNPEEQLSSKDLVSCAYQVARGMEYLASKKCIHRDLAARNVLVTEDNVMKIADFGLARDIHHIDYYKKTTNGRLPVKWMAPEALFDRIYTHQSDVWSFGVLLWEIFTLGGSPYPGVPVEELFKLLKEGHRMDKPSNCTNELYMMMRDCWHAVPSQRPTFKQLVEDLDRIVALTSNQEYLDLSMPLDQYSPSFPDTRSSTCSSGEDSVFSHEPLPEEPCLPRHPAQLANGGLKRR
T1 sequence (P11362 22-822): as above

Row | Compound | IC50 (FGFR1) | IC50 (FGFR1 IIIc)
1 | COc1cc(CCc2cc(NC(=O)c3ccc(N4CCN(C)[C@@H](C)C4)cc3)[nH]n2)cc(OC)c1 [Example 1a, (S)—N-(3-(3,5-Dimethoxyphenethyl)-1H-pyrazol-5-yl)-4-(3,4-dimethylpiperazin-1-yl)benzamide] | 0.74 nM | 
2 | COc1cc(CCc2cc(NC(=O)c3ccc(N4CCN(C)[C@H](C)C4)cc3)[nH]n2)cc(OC)c1 [Example 1b, (R)—N-(3-(3,5-Dimethoxyphenethyl)-1H-pyrazol-5-yl)-4-(3,4-dimethylpiperazin-1-yl)benzamide] | 1.1 nM and 0.64 nM and 0.76 nM | < 10 nM and 1.1 nM and 2.2 nM and 4.8 nM
